Columns and labels:
[1] = system: cucumber chitinase protein; assay: Cucumber chitinase ELISA in transgenic plants carrying cucumber chitinase genomic constructs after leaf treatment; type: in vivo, tobacco; design: key: —: Indicates that sample has no detectable level of chitinase protein
Protocol: Once the transgenic plants are transferred to soil, they are grown 4-5 weeks before treatment. The following solutions are applied to the leaves with sterile paintbrushes:
3. Methyl benzo-1,2,3-thiadiazole-7-carboxylate. The solution is made by resuspending a wettable powder containing a formulation of the chemical with 25% active ingredient in sterile water at a concentration of 1 mg/ml.
4. Methyl 2,6-dichloroisonicotinate, prepared as above. Alternatively, 30 ul of 10 mM sodium phosphate buffer, pH 7.0, or 30 ul of the same buffer containing tobacco mosaic virus (50-100 pfu/30 ul) is applied to the leaves which have been sprinkled with carborundum. The buffers are distributed over the whole treated leaf by gentle rubbing.
The plants are allowed to continue to grow for seven days. The treated leaves are then harvested, frozen in liquid nitrogen and stored at −80° C. until they are assayed.
Frozen leaf tissue is ground in a mortar with a pestle in the presence of liquid nitrogen to produce a fine powder. 0.33 g of each tissue sample is added to 1 ml extraction buffer (50 mM Tris-HCl, pH 8.5, 0.2M 2-mercaptoethanol, 2 mM phenyl methyl sulfonyl fluoride, 2 mM benzamidine, 10 mM epsilon-aminocaproic acid, 1 mM leueptine) and the sample homogenized for one minute with an Ultra Turrax Mixer (shaft #S25N-8G, Tekmar Co. Cincinnati, Ohio). The samples are then centrifuged at 48,000×g for fifteen minutes at 4° C. and the supernatant removed from the pelleted material. The extracts are diluted at least 1:50 in ELISA diluent (101 mM sodium phosphate, pH 7.4, 140 mM sodium chloride, 0.05% Tween 20, 0.02% sodium azide, 1% BSA).
A microtiter plate is coated with monoclonal antibody specific to the cucumber chitinase protein at 2 ug/ml in borate-buffered saline (100 mM boric acid, 25mM sodium borate, 75 mM sodium chloride; pH 8.5) using 50 ul per well. The plate is incubated overnight at 4° C. The plate is washed with ELISA wash buffer (10 mM Tris-HCl, pH 8.0, 0.05% Tween 20, 3 mM sodium azide) and BSA blocking solution (10 mM sodium phosphate, pH 7.4, 140 mM sodium chloride, 0.02% sodium azide, 1% BSA) is added to completely cover each well. Incubation is for at least 30 minutes at room temperature.
The microtiter plate is washed with ELISA wash buffer and 50 ul of extract is added to the appropriate well. 50 ul of each of 10 chitinase protein standards (ranging from 0 ng/ml to 31.64 ng/ml) was also added to the appropriate well and the plate is incubated for two hours at 4° C. The plate is washed with ELISA wash buffer and 50 ul of rabbit polyclonal antibody to the cucumber chitainase protein (diluted 1:15,000 in ELISA diluent) is added to the well and incubated for one hour at 37° C. After washing with ELISA wash buffer, 50 ul of goat anti-rabbit conjugated to alkaline phosphatase (1:500 in ELISA diluent) is added to each well and incubated at 37° C. for one hour. The plate is then washed and 50 ul alkaline phosphatase substrate solution (0.6 mg/ml p-nitrophenyl phosphate in 0.5 mM magnesium chloride and 10% diethanolamine) is added to each well. After a 30 minute incubation at room temperature, 50 ul of 3N sodium hydroxide is added to each well to stop the reaction.
The plate is read at 405 nm and 492 nm on an HP Genenchem ELISA plate reader. The output values are expressed as A(405 nm)-A(492 nm)−0.092 to allow for correction of p-nitrophenyl phosphate as substrate. The chitinase standards for each plate are graphed logarithmically. The amount of chitinase protein in each sample is determined from the standard curve. If the amount of chitinase in any sample is close to the upper limit of the curve, the sample is assayed again at a greater dilution. Final results are expressed in the table below in ug chitinase per gram tissue.

[2] = system: chemically regulatable chimeric genes coding for GUS, AHAS or BT; assay: Primer extension assay for mRNA of chemically regulatable chimeric genes; type: in vivo; conditions: callus or regenerated plant material from transgenic plants; level proportional to amount of regulator applied
Protocol: 50 g of total RNA is lyophilized in a 500 l Eppendorf tube. The RNA is resuspended in 30 l of radiolabeled probe solution and heated to 70′ C. for 10 minutes. The tube is slowly cooled to 37° C. and allowed to incubate overnight. Without removing the tube from the 37° C. water bath, 2 l of 10×reverse-transcriptase buffer (500 mM Tris-HCl, pH 7.5, 400 mM KCl, 30 mM MgCl2), 1 l 5 mg/ml bovine serum albumin, 5 l 100 mM dithiothreitol, 5 l 10×dNTPs (10 mM of each dNTP in H2O), 3 l H 20, 2 l RNasin (80 units), and 2 l reverse transcriptase (400 units) are added and the reaction is incubated at 37° C. for 30 minutes. To stop the reaction, 5 l of 3 M sodium acetate, pH 5, and 150 l absolute ethanol are added. The tube is left at −20° C. for 30 minutes, the precipitate is collected by centrifugation, washed with 80% ethanol and allowed to air-dry. The precipitate is resuspended in 10-20 l of loading dye (90% formamide, 0.05% bromophenol blue, 0.05% xylene cyanol, 1 mM EDTA) and the extension products are separated on a 6% sequencing gel (Maniatis, T. et al., supra). Extension products are visualized by autoradiography.
Plant materials induced and harvested as in Examples 140 to 142 are assayed for the induction of mRNA species by the isolation of RNA and the primer extension assay as described in Example 6.
The level of mRNA is proportional to the amount of regulator applied.

COC(=O)c1cccc2nnsc12 [Methyl benzo-1,2,3-thiadiazole-7-carboxylate]
ELISA ASSAY RESULTS (ug chitinase/g tissue) ([1]; line Bam-1 (2001/BamChit), leaves harvested after seven days, water 0.066, buffer —): 3.000 ug chitinase/g tissue | ELISA ASSAY RESULTS (ug chitinase/g tissue) ([1]; line Bam-3 (2001/BamChit), seven days, water —, buffer —): 0.504 ug chitinase/g tissue | ELISA ASSAY RESULTS (ug chitinase/g tissue) ([1]; line Bam-4 (2001/BamChit), seven days, water —, buffer —): — | ELISA ASSAY RESULTS (ug chitinase/g tissue) ([1]; line Bam-8 (2001/BamChit), seven days, water —, buffer —): — | ELISA ASSAY RESULTS (ug chitinase/g tissue) ([1]; line Bam-9 (2001/BamChit), seven days, water —, buffer —): 33.885 ug chitinase/g tissue | ELISA ASSAY RESULTS (ug chitinase/g tissue) ([1]; line Bam-10 (2001/BamChit), seven days, water 0.059, buffer 0.084): 25.182 ug chitinase/g tissue | ELISA ASSAY RESULTS (ug chitinase/g tissue) ([1]; line Bam-12 (2001/BamChit), seven days, water —, buffer —): 1.349 ug chitinase/g tissue | ELISA ASSAY RESULTS (ug chitinase/g tissue) ([1]; line Bam-14 (2001/BamChit), seven days, water —, buffer —): 0.541 ug chitinase/g tissue | ELISA ASSAY RESULTS (ug chitinase/g tissue) ([1]; line Bam-15 (2001/BamChit), seven days, water —, buffer —): 3.366 ug chitinase/g tissue | ELISA ASSAY RESULTS (ug chitinase/g tissue) ([1]; line Bam-16 (2001/BamChit), seven days, water —, buffer —): 18.849 ug chitinase/g tissue | ELISA ASSAY RESULTS (ug chitinase/g tissue) ([1]; line Bam-17 (2001/BamChit), seven days, water —, buffer —): 2.997 ug chitinase/g tissue | ELISA ASSAY RESULTS (ug chitinase/g tissue) ([1]; line Bam-19 (2001/BamChit), seven days, water —, buffer —): 0.998 ug chitinase/g tissue | ELISA ASSAY RESULTS (ug chitinase/g tissue) ([1]; line Bam-21 (2001/BamChit), seven days, water —, buffer —): — | ELISA ASSAY RESULTS (ug chitinase/g tissue) ([1]; line Bam-23 (2001/BamChit), seven days, water —, buffer —): 0.782 ug chitinase/g tissue | ELISA ASSAY RESULTS (ug chitinase/g tissue) ([1]; line Bam-24 (2001/BamChit), seven days, water —, buffer —): 0.88 ug chitinase/g tissue | ELISA ASSAY RESULTS (ug chitinase/g tissue) ([1]; line Bam-25 (2001/BamChit), seven days, water —, buffer —): 18.145 ug chitinase/g tissue | ELISA ASSAY RESULTS (ug chitinase/g tissue) ([1]; line Bam-26 (2001/BamChit), seven days, water —, buffer —): 0.676 ug chitinase/g tissue | ELISA ASSAY RESULTS (ug chitinase/g tissue) ([1]; line Nco-2 (2001/NcoChit), seven days, water —, buffer —): — | ELISA ASSAY RESULTS (ug chitinase/g tissue) ([1]; line Nco-3 (2001/NcoChit), seven days, water —, buffer —): — | ELISA ASSAY RESULTS (ug chitinase/g tissue) ([1]; line Nco-5 (2001/NcoChit), seven days, water —, buffer —): — | ELISA ASSAY RESULTS (ug chitinase/g tissue) ([1]; line Nco-8 (2001/NcoChit), seven days, water —, buffer —): — | ELISA ASSAY RESULTS (ug chitinase/g tissue) ([1]; line Nco-9 (2001/NcoChit), seven days, water —, buffer —): — | ELISA ASSAY RESULTS (ug chitinase/g tissue) ([1]; line Nco-10 (2001/NcoChit), seven days, water —, buffer —): 0.047 ug chitinase/g tissue | ELISA ASSAY RESULTS (ug chitinase/g tissue) ([1]; line Nco-11 (2001/NcoChit), seven days, water —, buffer —): — | ELISA ASSAY RESULTS (ug chitinase/g tissue) ([1]; line Nco-15 (2001/NcoChit), seven days, water —, buffer —): — | ELISA ASSAY RESULTS (ug chitinase/g tissue) ([1]; line Nco-16 (2001/NcoChit), seven days, water 0.555, buffer 0.566): 0.784 ug chitinase/g tissue | ELISA ASSAY RESULTS (ug chitinase/g tissue) ([1]; line Nco-17 (2001/NcoChit), seven days, water —, buffer —): — | ELISA ASSAY RESULTS (ug chitinase/g tissue) ([1]; line Sal-2 (2001/SalChit), seven days, water —, buffer —): 0.117 ug chitinase/g tissue | ELISA ASSAY RESULTS (ug chitinase/g tissue) ([1]; line Sal-3 (2001/SalChit), seven days, water —, buffer —): 0.060 ug chitinase/g tissue | ELISA ASSAY RESULTS (ug chitinase/g tissue) ([1]; line Sal-4 (2001/SalChit), seven days, water —, buffer —): 0.537 ug chitinase/g tissue | ELISA ASSAY RESULTS (ug chitinase/g tissue) ([1]; line Sal-5 (2001/SalChit), seven days, water —, buffer —): 0.229 ug chitinase/g tissue | ELISA ASSAY RESULTS (ug chitinase/g tissue) ([1]; line Sal-7 (2001/SalChit), seven days, water —, buffer —): 0.377 ug chitinase/g tissue | ELISA ASSAY RESULTS (ug chitinase/g tissue) ([1]; line Sal-8 (2001/SalChit), seven days, water —, buffer —): — | ELISA ASSAY RESULTS (ug chitinase/g tissue) ([1]; line Sal-9 (2001/SalChit), seven days, water —, buffer —): 0.553 ug chitinase/g tissue | ELISA ASSAY RESULTS (ug chitinase/g tissue) ([1]; line Sal-11 (2001/SalChit), seven days, water —, buffer —): — | ELISA ASSAY RESULTS (ug chitinase/g tissue) ([1]; line Sal-12 (2001/SalChit), seven days, water —, buffer —): — | ELISA ASSAY RESULTS (ug chitinase/g tissue) ([1]; line Sal-13 (2001/SalChit), seven days, water —, buffer —): — | ELISA ASSAY RESULTS (ug chitinase/g tissue) ([1]; line Sal-14 (2001/SalChit), seven days, water —, buffer —): — | ELISA ASSAY RESULTS (ug chitinase/g tissue) ([1]; line Sal-15 (2001/SalChit), seven days, water —, buffer —): 0.038 ug chitinase/g tissue | level of mRNA of the chimeric gene (GUS, AHAS or BT primer), primer extension assay [2]: elevated levels of mRNA
